Data published in patent publication US20260285850A1, “SUBSTITUTED OXAZOLIDINONES AND IMIDAZOLINONES AS HERBICIDES” (FMC CORPORATION, priority 2023, published 2026).

Experiments:
Format in all cases: in vivo
[1] = tested on: oat, wild (wild oat, Avena fatua); assay: Test A postemergence application, visual injury rating 0-100
In short: (§1)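 Plants were grown in a loam soil-sand blend and treated with test chemical in a non-phytotoxic solvent mixture containing surfactant, either sprayed on soil preemergence or applied postemergence to 2-10 cm plants. After 10 days in a greenhouse, injury was scored visually against untreated controls, 0 meaning no effect and 100 complete control.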

soybean (Glycine max) [2] = assay: as above
In short: as §1

[3] = tested on: wheat (Triticum aestivum); assay: as above
In short: as §1

[4] = tested on: galium (catchweed bedstraw, Galium aparine); assay: as above
In short: as §1

[5] = tested on: blackgrass (Alopecurus myosuroides); assay: as above
In short: as §1

[6] = tested on: horseweed (Erigeron canadensis); assay: as above
In short: as §1

corn (Zea mays) [7] = assay: as above
In short: as §1

[8] = tested on: ryegrass, Italian (italian ryegrass, Lolium multiflorum); assay: as above
In short: as §1

[9] = tested on: green foxtail (Setaria viridis); assay: as above
In short: as §1

kochia (Bassia scoparia) [10] = assay: as above
In short: as §1

[11] = tested on: ragweed (common ragweed, Ambrosia artemisiifolia); assay: as above
In short: as §1

[12] = tested on: barnyardgrass (Echinochloa crus-galli); assay: as above
In short: as §1

[13] = tested on: palmer (palmer amaranth, palmer pigweed, Amaranthus palmeri); assay: as above
In short: as §1

[14] = tested on: ducksalad (Heteranthera limosa); assay: Test B flooded paddy test, visual plant response rating 0-100; conditions: 250 g ai/ha, Flood, applied to paddy water, evaluated after 13 days
In short: (§2)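 Plants were grown to the 2-leaf stage, then pots were flooded to 3 cm above the soil and compound was applied directly to the paddy water, with that depth kept throughout.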

[15] = tested on: barnyardgrass (Echinochloa crusgalli); assay: as above; conditions: 250 g ai/ha, Flood, applied to paddy water, evaluated after 13 days
In short: as §2

rice (Oryza sativa) = assay: as above; conditions: 250 g ai/ha, Flood, applied to paddy water, evaluated after 13 days
In short: as §2

[16] = tested on: sedge, umbrella (small-flower umbrella sedge, Cyperus difformis); assay: as above; conditions: 250 g ai/ha, Flood, applied to paddy water, evaluated after 13 days
In short: as §2

[17] = tested on: oat, wild (wild oat, Avena fatua); assay: Test A preemergence soil spray, visual injury rating 0-100; conditions: 10 days
In short: as §1

soybean (Glycine max) [18] = assay: as above; conditions: 10 days
In short: as §1

[19] = tested on: wheat (Triticum aestivum); assay: as above; conditions: 10 days
In short: as §1

[20] = tested on: blackgrass (Alopecurus myosuroides); assay: as above; conditions: 10 days
In short: as §1

corn (Zea mays) [21] = assay: as above; conditions: 10 days
In short: as §1

[22] = tested on: ryegrass, Italian (italian ryegrass, Lolium multiflorum); assay: as above; conditions: 10 days
In short: as §1

[23] = tested on: green foxtail (Setaria viridis); assay: as above; conditions: 10 days
In short: as §1

kochia (Bassia scoparia) [24] = assay: as above; conditions: 62 g ai/ha, 10 days, 0 = no effect, 100 = complete control
In short: as §1

[25] = tested on: ragweed (common ragweed, Ambrosia artemisiifolia); assay: as above; conditions: 10 days
In short: as §1

[26] = tested on: barnyardgrass (Echinochloa crus-galli); assay: as above; conditions: 10 days
In short: as §1

[27] = tested on: palmer (palmer amaranth, palmer pigweed, Amaranthus palmeri); assay: as above; conditions: 10 days
In short: as §1

[28] = 62 g ai/ha, postemergence, 10 days, 0 = no effect, 100 = complete control
[29] = Postemergence, 16 g ai/ha, greenhouse 10 days, 0 no effect, 100 complete control
[30] = 62 g ai/ha, 0 = no effect, 100 = complete control

CCOC(=O)C1C=CC(NC(=O)C2(C)CN(c3cc(C)cc(C)c3)C(=O)O2)C1 (stereo not drawn) [Compound 116]
Oat, Wild plant response rating (0-100) [1, 28]: 90 | Oat, Wild plant response rating (0 to 100 scale) [1, 29]: 60 | Soybean plant response rating (0-100) (soybean (Glycine max) [2]; [28]): 60 | Soybean plant response rating (0 to 100 scale) (soybean (Glycine max) [2]; [29]): 50 | Wheat plant response rating (0-100) [3, 28]: 90 | Wheat plant response rating (0 to 100 scale) [3, 29]: 40 | Galium plant response rating (0-100) [4, 28]: 70 | Galium plant response rating (0 to 100 scale) [4, 29]: 60 | Blackgrass plant response rating (0-100) [5, 28]: 90 | Blackgrass plant response rating (0 to 100 scale) [5, 29]: 80 | Horseweed plant response rating (0-100) [6, 28]: 0 | Horseweed plant response rating (0 to 100 scale) [6, 29]: 0 | Corn plant response rating (0-100) (corn (Zea mays) [7]; [28]): 100 | Corn plant response rating (0 to 100 scale) (corn (Zea mays) [7]; [29]): 40 | Ryegrass, Italian plant response rating (0-100) [8, 28]: 70 | Ryegrass, Italian plant response rating (0 to 100 scale) [8, 29]: 20 | Foxtail, Green plant response rating (0-100) [9, 28]: 30 | Foxtail, Green plant response rating (0 to 100 scale) [9, 29]: 10 | Kochia plant response rating (0-100) (kochia (Bassia scoparia) [10]; [28]): 60 | Kochia plant response rating (0 to 100 scale) (kochia (Bassia scoparia) [10]; [29]): 20 | Ragweed plant response rating (0-100) [11, 28]: 30 | Ragweed plant response rating (0 to 100 scale) [11, 29]: 0 | Barnyardgrass plant response rating (0-100) [12, 28]: 100 | Barnyardgrass plant response rating (0 to 100 scale) [12, 29]: 70 | Pigweed, Palmer plant response rating (0-100) [13, 28]: 40 | Pigweed, Palmer plant response rating (0 to 100 scale) [13, 29]: 0 | Plant response rating, Ducksalad (0 to 100 scale, 0 is no effect and 100 is complete control) [14]: 45 | Plant response rating, Barnyardgrass (0 to 100 scale, 0 is no effect and 100 is complete control) [15]: 75 | Plant response rating, Rice (0 to 100 scale, 0 is no effect and 100 is complete control) (rice (Oryza sativa)): 50 | Plant response rating, Sedge, Umbrella (0 to 100 scale, 0 is no effect and 100 is complete control) [16]: 55 | Oat, Wild plant response rating ([17]; 16 g ai/ha, 0 to 100 scale): 0 | Oat, Wild plant response rating (0-100) [17, 30]: 50 | Soybean plant response rating (soybean (Glycine max) [18]; 16 g ai/ha, 0 to 100 scale): 0 | Soybean plant response rating (0-100) (soybean (Glycine max) [18]; [30]): 0 | Wheat plant response rating ([19]; 16 g ai/ha, 0 to 100 scale): 0 | Wheat plant response rating (0-100) [19, 30]: 30 | Blackgrass plant response rating ([20]; 16 g ai/ha, 0 to 100 scale): 0 | Blackgrass plant response rating (0-100) [20, 30]: 70 | Corn plant response rating (corn (Zea mays) [21]; 16 g ai/ha, 0 to 100 scale): 0 | Corn plant response rating (0-100) (corn (Zea mays) [21]; [30]): 10 | Ryegrass, Italian plant response rating ([22]; 16 g ai/ha, 0 to 100 scale): 0 | Ryegrass, Italian plant response rating (0-100) [22, 30]: 70 | Foxtail, Green plant response rating ([23]; 16 g ai/ha, 0 to 100 scale): 0 | Foxtail, Green plant response rating (0-100) [23, 30]: 80 | Kochia plant response rating (0-100) (kochia (Bassia scoparia) [24]): 100 | Ragweed plant response rating ([25]; 16 g ai/ha, 0 to 100 scale): 0 | Ragweed plant response rating (0-100) [25, 30]: 0 | Barnyardgrass plant response rating ([26]; 16 g ai/ha, 0 to 100 scale): 30 | Barnyardgrass plant response rating (0-100) [26, 30]: 100 | Pigweed, Palmer plant response rating ([27]; 16 g ai/ha, 0 to 100 scale): 10 | Pigweed, Palmer plant response rating (0-100) [27, 30]: 100
